Assay results reported in ChEMBL document CHEMBL4229379, “Synthesis and structure-activity relationship of novel bisindole amidines active against MDR Gram-positive and Gram-negative bacteria” (Eur J Med Chem, 2018).
Values after ≈ are worked out from the molar mass of the structure shown.

Assays:
Enterococcus faecium [1] = assay: Antibacterial activity against vancomycin-resistant Enterococcus faecium ATCC 700221 after 18 hrs by CLSI broth microdilution method; assay type: functional; conditions: ATCC 700221, 18 h
Enterococcus faecalis [2] = assay: Antibacterial activity against vancomycin-resistant Enterococcus faecalis ATCC 51299 after 18 hrs by CLSI broth microdilution method; assay type: functional; conditions: ATCC 51299, 18 h
Klebsiella pneumoniae [3] = assay: Antibacterial activity against extended-spectrum beta-lactamase deficient Klebsiella pneumoniae 7 after 18 hrs by CLSI broth microdilution method; assay type: functional; conditions: Klebsiella pneumoniae, 7, 18 h
Enterobacter cloacae = assay: Antibacterial activity against Enterobacter cloacae ATCC 43560 after 18 hrs by CLSI broth microdilution method; assay type: functional; conditions: ATCC 43560, 18 h
Enterococcus faecium [4] = assay: Antibacterial activity against vancomycin-sensitive Enterococcus faecium 12-3 after 18 hrs by CLSI broth microdilution method; assay type: functional; conditions: 12-3, 18 h
Enterococcus faecium [5] = assay: Antibacterial activity against vancomycin-resistant Enterococcus faecium 12-1 after 18 hrs by CLSI broth microdilution method; assay type: functional; conditions: 12-1, 18 h
Pseudomonas aeruginosa [6] = assay: Antibacterial activity against Pseudomonas aeruginosa ATCC 27853 after 18 hrs by CLSI broth microdilution method; assay type: functional; conditions: ATCC 27853, 18 h
[7] = test system: Staphylococcus epidermidis; assay: Antibacterial activity against methicillin-sensitive Staphylococcus epidermidis 12-6 after 18 hrs by CLSI broth microdilution method; assay type: functional; conditions: 12-6, 18 h
[8] = test system: Staphylococcus epidermidis; assay: Antibacterial activity against methicillin-resistant Staphylococcus epidermidis 12-8 after 18 hrs by CLSI broth microdilution method; assay type: functional; conditions: 12-8, 18 h
[9] = test system: Acinetobacter calcoaceticus; assay: Antibacterial activity against Acinetobacter calcoaceticus ATCC 19606 after 18 hrs by CLSI broth microdilution method; assay type: functional; conditions: ATCC 19606, 18 h
Klebsiella pneumoniae [10] = assay: Antibacterial activity against extended-spectrum beta-lactamase harboring Klebsiella pneumoniae 12-8 after 18 hrs by CLSI broth microdilution method; assay type: functional; conditions: 12-8, 18 h
Pseudomonas aeruginosa [11] = assay: Antibacterial activity against Pseudomonas aeruginosa PAO1 after 18 hrs by CLSI broth microdilution method; assay type: functional; conditions: PAO1, 18 h
Staphylococcus aureus [12] = assay: Antibacterial activity against methicillin-resistant Staphylococcus aureus 12-33 after 18 hrs by CLSI broth microdilution method; assay type: functional; conditions: 12-33, 18 h
Klebsiella pneumoniae [13] = assay: Antibacterial activity against extended-spectrum beta-lactamase harboring Klebsiella pneumoniae ATCC 700603 after 18 hrs by CLSI broth microdilution method; assay type: functional; conditions: Klebsiella pneumoniae, 700603, 18 h
Enterococcus faecalis [14] = assay: Antibacterial activity against vancomycin-sensitive Enterococcus faecalis 12-5 after 18 hrs by CLSI broth microdilution method; assay type: functional; conditions: 12-5, 18 h
Escherichia coli [15] = assay: Antibacterial activity against extended-spectrum beta-lactamase deficient Escherichia coli 1515 after 18 hrs by CLSI broth microdilution method; assay type: functional; conditions: Escherichia coli, 1515, 18 h
[16] = Cytotoxicity against HEK293T cells assessed as reduction in cell viability after 48 hrs by MTS assay; assay type: cell-based, HEK-293T; conditions: human
Pseudomonas aeruginosa [17] = assay: Antibacterial activity against Pseudomonas aeruginosa 12-16 after 18 hrs by CLSI broth microdilution method; assay type: functional; conditions: 12-16, 18 h
Klebsiella aerogenes = assay: Antibacterial activity against Enterobacter aerogenes ATCC 13048 after 18 hrs by CLSI broth microdilution method; assay type: functional; conditions: ATCC 13048, 18 h
Enterococcus faecalis [18] = assay: Antibacterial activity against vancomycin-sensitive Enterococcus faecalis ATCC 29212 after 18 hrs by CLSI broth microdilution method; assay type: functional; conditions: ATCC 29212, 18 h
[19] = test system: Staphylococcus epidermidis; assay: Antibacterial activity against methicillin-sensitive Staphylococcus epidermidis ATCC 12228 after 18 hrs by CLSI broth microdilution method; assay type: functional; conditions: ATCC 12228, 18 h
Escherichia coli [20] = assay: Antibacterial activity against extended-spectrum beta-lactamase deficient Escherichia coli 12-14 after 18 hrs by CLSI broth microdilution method; assay type: functional; conditions: 12-14, 18 h
Enterococcus faecalis [21] = assay: Antibacterial activity against vancomycin-resistant Enterococcus faecalis 09-9 after 18 hrs by CLSI broth microdilution method; assay type: functional; conditions: 09-9, 18 h
Proteus mirabilis = assay: Antibacterial activity against Proteus mirabilis 12-6 after 18 hrs by CLSI broth microdilution method; assay type: functional; conditions: 12-6, 18 h
Proteus vulgaris = assay: Antibacterial activity against Proteus vulgaris ATCC 29905 after 18 hrs by CLSI broth microdilution method; assay type: functional; conditions: ATCC 29905, 18 h
Klebsiella pneumoniae [22] = assay: Antibacterial activity against extended-spectrum beta-lactamase deficient Klebsiella pneumoniae 12-4 after 18 hrs by CLSI broth microdilution method; assay type: functional; conditions: 12-4, 18 h
Providencia rettgeri = assay: Antibacterial activity against Providencia rettgeri ATCC 31052 after 18 hrs by CLSI broth microdilution method; assay type: functional; conditions: ATCC 31052, 18 h
Staphylococcus aureus [23] = assay: Antibacterial activity against methicillin-sensitive Staphylococcus aureus 12-28 after 18 hrs by CLSI broth microdilution method; assay type: functional; conditions: 12-28, 18 h
Klebsiella pneumoniae [24] = assay: Antibacterial activity against new delhi metallo-beta-lactamase-1 harboring Klebsiella pneumoniae ATCC BAA-2146 after 18 hrs by CLSI broth microdilution method; assay type: functional; conditions: ATCC BAA-2146, 18 h
Escherichia coli [25] = assay: Antibacterial activity against extended-spectrum beta-lactamase deficient Escherichia coli ATCC 25922 after 18 hrs by CLSI broth microdilution method; assay type: functional; conditions: ATCC 25922, 18 h
Serratia marcescens = assay: Antibacterial activity against Serratia marcescens ATCC 21074 after 18 hrs by CLSI broth microdilution method; assay type: functional; conditions: ATCC 21074, 18 h
Staphylococcus aureus [26] = assay: Antibacterial activity against methicillin-resistant Staphylococcus aureus ATCC 33591 after 18 hrs by CLSI broth microdilution method; assay type: functional; conditions: ATCC 33591, 18 h
Staphylococcus aureus [27] = assay: Antibacterial activity against methicillin-sensitive Staphylococcus aureus 15 after 18 hrs by CLSI broth microdilution method; assay type: functional; conditions: Staphylococcus aureus, 15, 18 h
Citrobacter freundii = assay: Antibacterial activity against Citrobacter freundii ATCC 43864 after 18 hrs by CLSI broth microdilution method; assay type: functional; conditions: ATCC 43864, 18 h
Staphylococcus aureus [28] = assay: Antibacterial activity against methicillin-sensitive Staphylococcus aureus ATCC 29213 after 18 hrs by CLSI broth microdilution method; assay type: functional; conditions: ATCC 29213, 18 h
Escherichia coli [29] = assay: Antibacterial activity against extended-spectrum beta-lactamase harboring Escherichia coli 12-15 after 18 hrs by CLSI broth microdilution method; assay type: functional; conditions: 12-15, 18 h
[30] = test system: Stenotrophomonas maltophilia; assay: Antibacterial activity against Stenotrophomonas maltophilia ATCC 13636 after 18 hrs by CLSI broth microdilution method; assay type: functional; conditions: ATCC 13636, 18 h

Row | SMILES | MIC (Enterococcus faecium [1]) [µg/mL] | MIC (Enterococcus faecalis [2]) [µg/mL] | MIC (Klebsiella pneumoniae [3]) [µg/mL] | MIC (Enterobacter cloacae) [µg/mL] | MIC (Enterococcus faecium [4]) [µg/mL] | MIC (Enterococcus faecium [5]) [µg/mL] | MIC (Pseudomonas aeruginosa [6]) [µg/mL] | MIC [7] [µg/mL] | MIC [8] [µg/mL] | MIC [9] [µg/mL] | MIC (Klebsiella pneumoniae [10]) [µg/mL] | MIC (Pseudomonas aeruginosa [11]) [µg/mL] | MIC (Staphylococcus aureus [12]) [µg/mL] | MIC (Klebsiella pneumoniae [13]) [µg/mL] | MIC (Enterococcus faecalis [14]) [µg/mL] | MIC (Escherichia coli [15]) [µg/mL] | CC50 at 48 h [16] [µg/mL] | MIC (Pseudomonas aeruginosa [17]) [µg/mL] | MIC (Klebsiella aerogenes) [µg/mL] | MIC (Enterococcus faecalis [18]) [µg/mL] | other results
1 | N=C(c1ccc2cc(-c3ccc(-c4cc5ccc(C(=N)N6CCC6)cc5[nH]4)cc3)[nH]c2c1)N1CCC1 | 1 (≈ 2.12 µM) | 2 (≈ 4.23 µM) | 16 (≈ 33.9 µM) | 8 (≈ 16.9 µM) | 2 (≈ 4.23 µM) | 1 (≈ 2.12 µM) | 64 (≈ 135 µM) | 0.125 (≈ 0.264 µM) | 0.125 (≈ 0.264 µM) | 32 (≈ 67.7 µM) | 32 (≈ 67.7 µM) | 128 (≈ 271 µM) | 4 (≈ 8.46 µM) | 32 (≈ 67.7 µM) | 4 (≈ 8.46 µM) | 2 (≈ 4.23 µM) | 2.84 (≈ 6.01 µM) | 128 (≈ 271 µM) | 4 (≈ 8.46 µM) | 4 (≈ 8.46 µM) | MIC [19]: 0.125 µg/mL (≈ 0.264 µM); MIC (Escherichia coli [20]): 2 µg/mL (≈ 4.23 µM); MIC (Enterococcus faecalis [21]): 1 µg/mL (≈ 2.12 µM); MIC (Proteus mirabilis): 16 µg/mL (≈ 33.9 µM); MIC (Proteus vulgaris): 32 µg/mL (≈ 67.7 µM); MIC (Klebsiella pneumoniae [22]): 8 µg/mL (≈ 16.9 µM); MIC (Providencia rettgeri): 8 µg/mL (≈ 16.9 µM); MIC (Staphylococcus aureus [23]): 2 µg/mL (≈ 4.23 µM); MIC (Klebsiella pneumoniae [24]): 16 µg/mL (≈ 33.9 µM); MIC (Escherichia coli [25]): 1 µg/mL (≈ 2.12 µM); MIC (Serratia marcescens): 32 µg/mL (≈ 67.7 µM); MIC (Staphylococcus aureus [26]): 1 µg/mL (≈ 2.12 µM); MIC (Staphylococcus aureus [27]): 2 µg/mL (≈ 4.23 µM); MIC (Citrobacter freundii): 4 µg/mL (≈ 8.46 µM); MIC (Staphylococcus aureus [28]): 2 µg/mL (≈ 4.23 µM); MIC (Escherichia coli [29]): 2 µg/mL (≈ 4.23 µM); MIC [30]: 8 µg/mL (≈ 16.9 µM)
2 | CN1CCN(C(=N)c2ccc3cc(-c4ccc(-c5cc6ccc(C(=N)N7CCN(C)CC7)cc6[nH]5)cc4)[nH]c3c2)CC1 | 8 (≈ 14.3 µM) | 64 (≈ 115 µM) | 16 (≈ 28.6 µM) | 8 (≈ 14.3 µM) | 8 (≈ 14.3 µM) | 8 (≈ 14.3 µM) | 64 (≈ 115 µM) | 2 (≈ 3.58 µM) | 1 (≈ 1.79 µM) | 128 (≈ 229 µM) | 16 (≈ 28.6 µM) | 128 (≈ 229 µM) | 1 (≈ 1.79 µM) | 64 (≈ 115 µM) | 64 (≈ 115 µM) | 8 (≈ 14.3 µM) | 18.9 (≈ 33.9 µM) | > 128 | 16 (≈ 28.6 µM) | 8 (≈ 14.3 µM) | MIC [19]: 1 µg/mL (≈ 1.79 µM); MIC (Escherichia coli [20]): 8 µg/mL (≈ 14.3 µM); MIC (Enterococcus faecalis [21]): 8 µg/mL (≈ 14.3 µM); MIC (Proteus mirabilis): > 128 µg/mL; MIC (Proteus vulgaris): 16 µg/mL (≈ 28.6 µM); MIC (Klebsiella pneumoniae [22]): 64 µg/mL (≈ 115 µM); MIC (Providencia rettgeri): 8 µg/mL (≈ 14.3 µM); MIC (Staphylococcus aureus [23]): 1 µg/mL (≈ 1.79 µM); MIC (Klebsiella pneumoniae [24]): 16 µg/mL (≈ 28.6 µM); MIC (Escherichia coli [25]): 8 µg/mL (≈ 14.3 µM); MIC (Serratia marcescens): > 128 µg/mL; MIC (Staphylococcus aureus [26]): 1 µg/mL (≈ 1.79 µM); MIC (Staphylococcus aureus [27]): 1 µg/mL (≈ 1.79 µM); MIC (Citrobacter freundii): 8 µg/mL (≈ 14.3 µM); MIC (Staphylococcus aureus [28]): 1 µg/mL (≈ 1.79 µM); MIC (Escherichia coli [29]): 8 µg/mL (≈ 14.3 µM); MIC [30]: 128 µg/mL (≈ 229 µM)
